Where two headings read alike, the source gives them in different places.
Experiments:
Assay type in all cases: biochemical
[1] = target: T1, murine iNOS (Mus musculus, UniProt P29477); test: NOS enzyme inhibitory assay (hemoglobin capture), iNOS; conditions: for IC50: murine iNOS, 10 μM L-arginine
T1 construct: made in house; host or cells: E. coli (plasmid pCWiNOS)
Source text: (§1) All of the NOS isoforms used were recombinant enzymes overexpressed in E. coli from different sources. Nitric oxide formation from NOS was monitored by the hemoglobin capture assay as described in the literature.
Enzyme inhibitory assay. All of the NOS isoforms used are recombinant enzymes overexpressed in E. coli from different sources.
iNOS expression: An overnight culture of pCWiNOS was used to inoculate (1:100) larger cultures of Terrific Broth media (12 g/L tryptone, 24 g/L yeast extract, 4 mL/L glycerol, 17 mM KH2PO4, and 72 mM K2HPO4) containing 50 μg/mL ampicillin and 34 μg/mL chloramphenicol at 37° C. At an OD600 of ˜0.5, the culture was cooled to 25° C. and induced by the addition of 1 mM IPTG (final concentration). After approximately 24 h of growth at 25° C., the cells were pelleted at 5300×g, transferred to 50 mL conical tubes, and stored at −80° C.
iNOS purification: Cell pellets from 1.0 L of culture were resuspended in sonication buffer (50 mM Hepes, pH 7.4, 10% glycerol, 10 μg/mL benzamidine, 5 μg/mL leupeptin, 0.2 mM of PMSF, and 1 μg/mL each of pepstatin, chymostatin, and antipain) and lysed by sonication. Centrifugation for 20 min at 13000×g yielded supernatant which contained iNOS active enzyme. iNOS supernatant was loaded onto 1 g of a 2′,5′-ADP-Sepharose 4B resin column. The column was then washed with 20 ml iNOS purification buffer (10 mM K2HPO4, 10% glycerol, 0.5 mM L-arginine, pH 7.4) and 10 μM BH4. Inducible NOS was eluted with 30 ml iNOS purification buffer supplemented with 10 mM 2′(3′)-AMP, 10 μM BH4, and 0.3 M NaCl. The eluent was concentrated to 5 ml by ultrafiltration. The above concentration operation was repeated three times more with 10 ml Hepes buffer supplemented with 10 μM BH4, to give purified inducible NOS.
(§2) Nitric oxide formation from NOS was monitored by the hemoglobin capture assay as described previously. (Hevel, J. M.; Marletta, M. A. Nitric Oxide Synthase Assays. Methods Enzymol. 1994, […], 250-258).
(§3) The selectivity of an inhibitor is defined as the ratio of the respective Ki values.

[2] = target: T2, rat nNOS (Rattus norvegicus, UniProt P29476); test: NOS enzyme inhibitory assay (hemoglobin capture), nNOS; conditions: for IC50: rat nNOS, 10 μM L-arginine
T2 construct: made in house; host or cells: E. coli (plasmid pCWnNOS)
Description: as §1
After approximately 48 h of post-induction incubation in the dark at 25° C. the cells were pelleted at 5300×g, transferred to 50 mL conical tubes, and stored at −80° C.
nNOS purification: Cell pellets from 2.0 L of culture were resuspended in sonication Buffer A (50 mM Tris Base Buffer, pH 8.0, 10% glycerol), 2 mg/ml lysozyme. 0.5 mM L-arginine. 1 mM EDTA, 0.1 mM PMSF, 1 µg/ml antipain, and 1 μM each of leupeptin, […], and […]) and lysed by sonication. Centrifugation for 1 h at 100000×g yielded supernatant which contained nNOS active enzyme. The supernatant was brought to 2 mM CaCl2 and the protein was loaded onto a 15 ml calmodulin-Sepharose column equilibrated with Buffer A containing 2 mM CaCl2. The column was washed with 100 ml Buffer B (50 mM Hepes, 5 mM DTT, and […]) containing 2 mM CaCl2, 0.5 mM L-arginine, and 10 μM BH4, and eluted with 30 ml Buffer B supplemented with 0.3 M NaCl, 5 mM EGTA, 0.5 mM L-arginine, and 10 μM BH4. The protein was then loaded onto a 5 ml 2′,5′-ADP-Sepharose column equilibrated with Buffer B supplemented with 0.3 M NaCl, 0.5 mM L-arginine, and 10 μM BH4. The column was washed with 25 ml Buffer B containing 0.5 mM L-arginine and 10 μM BH4, and then 25 ml of Buffer B only supplemented with 10 μM BH4 (without L-arginine). Neuronal NOS was eluted with 20 ml Buffer B supplemented with 10 mM 2′(3′)-AMP, 10 μM BH4 and 0.3 M NaCl. The 20 ml eluent was then concentrated to 5 ml by ultrafiltration. The above concentration operation was repeated twice more with 10 ml Buffer B supplemented with 10 µM BH4 to give the purified neuronal NOS.
Nitric oxide formation from NOS was monitored by the hemoglobin capture assay as described previously.
as §3

[3] = target: T3, bovine eNOS (Bos taurus, UniProt P29473); test: NOS enzyme inhibitory assay (hemoglobin capture), eNOS; conditions: for IC50: bovine eNOS, 10 μM L-arginine, * = no inhibition observed up to the concentration listed
T3 construct: made in house; host or cells: E. coli (plasmid Bov-eNOSpCW)
Description: as §1
Expression of bovine eNOS: An overnight culture of Bov-eNOSpCW was used to inoculate 0.5 liter (in a 2.8-liter Fernbach flask) of modified TB (20 g of yeast extract, 10 g of bacto-tryptone, 2.65 g of KH2PO4, 4.33 g of Na2HPO4 and 4 ml of glycerol per liter) containing ampicillin ([…]) and chloramphenicol ([…]). The cultures were grown to an OD600 of z0.8 at 22° C. (200 rpm) and induced with 0.5 mM IPTG. One hour before IPTG induction, d-aminolevulinic acid (0.5 mM final) was added and, at the time of IPTG induction, riboflavin ([…]) and ATP (1 mM final) were also added. After induction, the flasks were kept in the dark at 22° C. (200 rpm). The cells were harvested 48 h after induction, and the cell pellet was frozen at −80° C. until purification was carried out.
Purification of bovine eNOS. The purification was typically carried out with eNOS from 2 liters of E. coli culture. The eNOS protein was purified using a modification of the published protocol for nNOS (14). The cells were resuspended in buffer C [50 mM Tris-Cl, pH 7.8, 1 mM EDTA, 1 mM DTT, 10% glycerol (v/v), 150 mM NaCl, 0.1 mM phenylmethylsulfonyl fluoride, […]], lysed by pulsed sonication and then centrifuged to sediment the cell debris. The supernatant was applied to a 2′,5′-ADP Sepharose 4B column equilibrated in buffer D [50 mM Tris-Cl, pH 7.8, 0.1 mM EDTA, 0.1 mM dithiothreitol, 150 mM NaCl, 10% glycerol (v/v)]. The column was washed with 20 column volumes of buffer B and again with 20 column volumes of buffer B containing 600 mM NaCl. Finally, protein was eluted with buffer B containing 600 mM NaCl and 5 mM 2′-AMP. The fractions were screened for absorption in the Soret region (A400) and hemoprotein-containing fractions were pooled and concentrated (Centriprep 50, Amicon). Repeated dilution/concentration [50 mM Tris-Cl, pH 7.8, 0.1 mM EDTA, 0.1 mM dithiothreitol, 10% glycerol (vol/vol)] was used to reach a final concentration of 150 mM NaCl and commensurately reduce the 2′-AMP content. […] The purified eNOS is stored in the presence of 1 mM L-arginine.
eNOS washing: eNOS contains a significant amount of L-arginine, which will interfere with the enzyme assay. The L-arginine can be removed by several dilution and concentration steps using an Amico concentrator. The dilution buffer is 10 ml Tris-HCl 50 mM containing 0.1 mM EDTA, 400 mM NaCl, 10% glycerol and 1 mM beta-mercaptoethanol. The above dilution and concentration operation was repeated three times to give purified eNOS.
as §2, §3

[4] = Table 1b, ratio of Ki values eNOS/nNOS
[5] = Table 1b, ratio of Ki values iNOS/nNOS
[6] = Table 1a, apparent Ki calculated from IC50, Km […], read-out: calc. Ki iNOS
[7] = Table 1a, apparent Ki calculated from IC50, Km […], read-out: calc. Ki nNOS
[8] = Table 1a, apparent Ki calculated from IC50, Km 1.7 μM, read-out: calc. Ki eNOS

Structure (SMILES)	Ki ([1]; Table 1b, read-out: Ki iNOS) [µM]	Selectivity n/e [2, 4]	Selectivity n/i [2, 5]	Ki ([2]; Table 1b, read-out: Ki nNOS) [µM]	Ki ([3]; Table 1b, read-out: Ki eNOS) [µM]	Ki [1, 6] [µM]	IC50 ([1]; Table 1a) [µM]	Selectivity n/e ([2]; Table 1a, Ki(eNOS)/Ki(nNOS))	Selectivity n/i ([2]; Table 1a, Ki(iNOS)/Ki(nNOS))	Ki [2, 7] [µM]	IC50 ([2]; Table 1a) [µM]	Ki [3, 8] [µM]	IC50 ([3]; Table 1a) [µM]
Cc1cc(N)nc(C[C@H]2CNC[C@H]2OCCNC(=O)Cc2cccc(F)c2)c1.Cl.Cl (racemic) [Compound P-80, (±)-N-{2-{cis-4-[(6-amino-4-methylpyridin-2-yl)methyl]pyrrolidin-3-yloxy}ethyl}-2-(3-fluorophenyl)acetamide dihydrochloride]	19	17	3.8	5	85	–	–	–	–	–	–	–	–
Cc1cc(N)nc(C[C@H]2CNC[C@H]2OCC(=O)NCCc2cccc(F)c2)c1 (racemic) [Compound P-79, (±)-2-{cis-4-[(6-amino-4-methylpyridin-2-yl)methyl]pyrrolidin-3-yloxy}-N-(3-fluorophenethyl)acetamide]	13	–	–	–	125	–	–	–	–	–	–	–	–
Cc1cc(N)nc(C[C@H]2CNC[C@H]2NCCNCc2ccc(Cl)cc2Cl)c1.Cl.Cl.Cl.Cl (racemic) [Compound P-61]	7.7	272	70	0.11	29.9	–	–	–	–	–	–	–	–
Cc1cccc(CNCCN[C@H]2CNC[C@@H]2Cc2cc(C)cc(N)n2)c1.Cl.Cl.Cl.Cl (racemic) [Compound P-59]	83.9	305.5	127.1	0.66	202	–	–	–	–	–	–	–	–
Nc1cccc(CC2CNCC2NC2CCNC2)n1 (racemic) [Compound P-34]	–	–	–	–	–	174	384	192.54	138.06	1.26	11	243	1670
Nc1cccc(CC2CNCC2NCC(N)Cc2ccccc2)n1 (racemic) [Compound P-16]	–	–	–	–	–	299	658	>104.83	21.54	13.9	120	> 1450	> 10000
Cc1cc(N)nc(C[C@@H]2CNC[C@@H]2NCCOCCc2cccc(F)c2)c1 (racemic) [Compound P-78, cis-6-{{(±)-4-[2-(3-fluorophenethoxy)ethylamino]pyrrolidin-3-yl}methyl}-4-methylpyridin-2-amine]	1.4	50	3.5	0.4	20	–	–	–	–	–	–	–	–
Cc1cc(N)nc(CC2CNCC2NCCNCc2ccc(Cl)c(Cl)c2)c1.Cl.Cl.Cl.Cl (racemic) [Compound P-65]	23.8	153	57.4	0.414	63.2	–	–	–	–	–	–	–	–

Reference: patent publication US7994326B2 (Northwestern University, priority 2003, dated 2011)
